Assay results: ChEMBL document CHEMBL1201862, “PubChem BioAssay data set” (2004)
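Values below derive from 48-hour exposures of cells grown in 96-well plates, with endpoints linearly interpolated between the two concentrations bracketing the appropriate inhibition level. At the GI50, growth is halved.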 The source made the active and inactive calls. Cut-off read from the data, not from the text of the source: active = GI50 up to about 1.1 µM and inactive = higher.

Experiments:
Test in all cases: DTP human tumour cell line panel, 48 h
SF-295 = system: SF-295
SF-539 = system: SF-539
MDA-N = system: MDA-N
OVCAR-4 = system: OVCAR-4
HOP-92 = system: HOP-92
MDA-MB-231 = system: MDA-MB-231
NCI-H460 = system: NCI-H460
Malme-3M = system: Malme-3M
MCF7 = system: MCF7
SK-MEL-5 = system: SK-MEL-5
CAKI-1 = system: CAKI-1
OVCAR-3 = system: OVCAR-3
UACC-257 = system: UACC-257
DU-145 = system: DU-145
HCC 2998 = system: HCC 2998
NCI-H23 = system: NCI-H23
KM12 = system: KM12
MDA-MB-435 = system: MDA-MB-435
T47D = system: T47D
CCRF-CEM = system: CCRF-CEM

| SMILES | GI50 (SF-295) | GI50 (SF-539) | GI50 (MDA-N) | GI50 (OVCAR-4) | GI50 (HOP-92) | GI50 (MDA-MB-231) | GI50 (NCI-H460) | GI50 (Malme-3M) | GI50 (MCF7) | GI50 (SK-MEL-5) | GI50 (CAKI-1) | GI50 (OVCAR-3) | GI50 (UACC-257) | GI50 (DU-145) | GI50 (HCC 2998) | GI50 (NCI-H23) | GI50 (KM12) | GI50 (MDA-MB-435) | GI50 (T47D) | GI50 (CCRF-CEM) |
| --- | --- | --- | --- | --- | --- | --- | --- | --- | --- | --- | --- | --- | --- | --- | --- | --- | --- | --- | --- | --- |
| [N-]=[N+]=NC(c1ccccc1)(c1ccccc1)c1ccccc1 | 12.1 µM (inactive) | 16.9 µM (inactive) | 16.4 µM (inactive) | 20.3 µM (inactive) | 17.1 µM (inactive) | 16.5 µM (inactive) | 16.6 µM (inactive) | 14.6 µM (inactive) | 17.5 µM (inactive) | 13.8 µM (inactive) | 17.4 µM (inactive) | 20.4 µM (inactive) | 16 µM (inactive) | 17.3 µM (inactive) | 15.8 µM (inactive) | 16.5 µM (inactive) | 18.2 µM (inactive) | 19.1 µM (inactive) | 16 µM (inactive) | 19.1 µM (inactive) |
| COc1ccc2c(c1)CCCN1CCc3ccccc3C21 (stereo not given) | 24.7 µM (inactive) | 28.6 µM (inactive) | 18.9 µM (inactive) | > 100 µM (inactive) | 37.2 µM (inactive) | 23.9 µM (inactive) | 56.1 µM (inactive) | 37.2 µM (inactive) | 69.7 µM (inactive) | 33.8 µM (inactive) | 74.5 µM (inactive) | 30.2 µM (inactive) | 47.8 µM (inactive) | > 100 µM (inactive) | 69 µM (inactive) | 35.7 µM (inactive) | 34.7 µM (inactive) | 21.7 µM (inactive) | 77.3 µM (inactive) | 26.1 µM (inactive) |
| CC(C)(C)c1ccc(C(C)(C)C)c(N2C(=O)[C@@H]3[C@@H]4C=C[C@@H](C4)[C@]3(C)C2=O)c1 | 27.7 µM (inactive) | 51.5 µM (inactive) | 14 µM (inactive) | 13.6 µM (inactive) | 0.869 µM (active) | 28.4 µM (inactive) | 42 µM (inactive) | 21.9 µM (inactive) | 22.4 µM (inactive) | 30.8 µM (inactive) | 22.2 µM (inactive) | 13.9 µM (inactive) | 23.1 µM (inactive) | 20.2 µM (inactive) | 15.5 µM (inactive) | 45.1 µM (inactive) | 36.6 µM (inactive) | 15.5 µM (inactive) | 18.4 µM (inactive) | 7.38 µM (inactive) |
| COc1cc(C)cc(C(=O)OCc2ccccc2)c1C1=C(Cl)C(=O)C(Cl)=CC1=O | > 10 µM (inactive) | > 10 µM (inactive) | > 10 µM (inactive) | > 5.13 µM (inactive) | 3.51 µM (inactive) | > 10 µM (inactive) | > 10 µM (inactive) | > 10 µM (inactive) | > 9.42 µM (inactive) | > 10 µM (inactive) | > 10 µM (inactive) | 4.6 µM (inactive) | > 9.02 µM (inactive) | > 10 µM (inactive) | > 10 µM (inactive) | > 10 µM (inactive) | > 10 µM (inactive) | > 10 µM (inactive) | 6.44 µM (inactive) | 2.08 µM (inactive) |
| COc1cc2c(NCCCCCCO[N+](=O)[O-])ncnc2c(OC)c1OC | 21.1 µM (inactive) | 24.7 µM (inactive) | 20.6 µM (inactive) | 50.4 µM (inactive) | 14.6 µM (inactive) | 14.2 µM (inactive) | 22.3 µM (inactive) | 13.1 µM (inactive) | 17.6 µM (inactive) | 11.9 µM (inactive) | 19.1 µM (inactive) | 23.1 µM (inactive) | 17.8 µM (inactive) | 24.5 µM (inactive) | 0.399 µM (active) | 19.1 µM (inactive) | 16.2 µM (inactive) | 18.1 µM (inactive) | 23.8 µM (inactive) | 19.8 µM (inactive) |
| CCCCCCCC1C(C)c2c([nH]c3ccccc23)C2C(=O)N(c3ccc(OC)cc3)C(=O)C21 (stereo not given) | 2.58 µM (inactive) | 2.69 µM (inactive) | 4.22 µM (inactive) | 2.9 µM (inactive) | > 10 µM (inactive) | 3.82 µM (inactive) | 1.87 µM (inactive) | > 4.86 µM (inactive) | 4.6 µM (inactive) | > 6.22 µM (inactive) | 3.26 µM (inactive) | 2.48 µM (inactive) | 2.64 µM (inactive) | > 8.3 µM (inactive) | 7.6 µM (inactive) | 2.39 µM (inactive) | 6.34 µM (inactive) | 3.33 µM (inactive) | 3.79 µM (inactive) | 2.61 µM (inactive) |
| COc1ccc2nc3n(c2c1)CCc1cc(OC)c(OC)cc1-3 | 50.9 µM (inactive) | 88.9 µM (inactive) | 44 µM (inactive) | 34.8 µM (inactive) | 56 µM (inactive) | > 100 µM (inactive) | 50.5 µM (inactive) | 91 µM (inactive) | 42.5 µM (inactive) | 18.7 µM (inactive) | 42.4 µM (inactive) | 46.7 µM (inactive) | 55 µM (inactive) | 83.8 µM (inactive) | 26 µM (inactive) | 40.1 µM (inactive) | 30 µM (inactive) | 34.5 µM (inactive) | 34.6 µM (inactive) | 49.1 µM (inactive) |
| CC1CC[C@@]2(OC1)OC1C[C@H]3[C@@H]4CC[C@H]5CC(OC6OC(CO)C(OC7OC(CO)C(O)C(O)C7O)C(O)C6O)CCC5(C)[C@H]4CCC3(C)C1[C@@H]2C (stereo not given in full) | 8.55 µM (inactive) | 8.38 µM (inactive) | 8.2 µM (inactive) | 8.81 µM (inactive) | 8.57 µM (inactive) | 9.1 µM (inactive) | 9.04 µM (inactive) | 8.13 µM (inactive) | 5.85 µM (inactive) | 8.69 µM (inactive) | 8.49 µM (inactive) | 6.1 µM (inactive) | 9.64 µM (inactive) | 8.3 µM (inactive) | 5.85 µM (inactive) | 8.81 µM (inactive) | 8.18 µM (inactive) | 9.25 µM (inactive) | 9.31 µM (inactive) | 9.16 µM (inactive) |
| COc1cc(/C=C2/SC(c3ccccc3)N(c3ccc(Cl)cc3)C2=O)cc(OC)c1OC (stereo not given) | 3.27 µM (inactive) | > 100 µM (inactive) | 2.37 µM (inactive) | 7.98 µM (inactive) | > 100 µM (inactive) | > 100 µM (inactive) | 8 µM (inactive) | 27 µM (inactive) | 3.96 µM (inactive) | 0.638 µM (active) | > 51.2 µM (inactive) | 80.5 µM (inactive) | 47.2 µM (inactive) | > 100 µM (inactive) | > 100 µM (inactive) | 17.9 µM (inactive) | 5.46 µM (inactive) | 0.436 µM (active) | 3.94 µM (inactive) | 2.84 µM (inactive) |
| O=C1c2ccccc2C2CNC1(O)c1ccccc12 (stereo not given) | > 100 µM (inactive) | > 100 µM (inactive) | > 100 µM (inactive) | > 100 µM (inactive) | > 100 µM (inactive) | > 100 µM (inactive) | > 100 µM (inactive) | > 100 µM (inactive) | > 100 µM (inactive) | > 100 µM (inactive) | > 100 µM (inactive) | > 100 µM (inactive) | > 100 µM (inactive) | > 100 µM (inactive) | > 100 µM (inactive) | > 100 µM (inactive) | > 100 µM (inactive) | > 100 µM (inactive) | > 100 µM (inactive) | > 100 µM (inactive) |
| Cn1cc(S(=O)(=O)NC(=O)Nc2ccc(Cl)cc2)c2ccccc21 | 43.6 µM (inactive) | 11.1 µM (inactive) | 27.4 µM (inactive) | > 100 µM (inactive) | > 100 µM (inactive) | > 100 µM (inactive) | 57.4 µM (inactive) | > 100 µM (inactive) | 56 µM (inactive) | 73.5 µM (inactive) | 15.5 µM (inactive) | > 100 µM (inactive) | > 100 µM (inactive) | 49.2 µM (inactive) | 51.4 µM (inactive) | > 100 µM (inactive) | 28.5 µM (inactive) | 52.1 µM (inactive) | 28.6 µM (inactive) | > 100 µM (inactive) |
| Nc1ccc2c(=O)cc(-c3cccs3)[nH]c2n1 | 3.1 µM (inactive) | 1.48 µM (inactive) | 0.223 µM (active) | > 35.7 µM (inactive) | 9.1 µM (inactive) | 11.8 µM (inactive) | 2.77 µM (inactive) | 8.18 µM (inactive) | 1.12 µM (inactive) | 1.03 µM (active) | 6.67 µM (inactive) | 3.32 µM (inactive) | 5.9 µM (inactive) | 5.9 µM (inactive) | 2.19 µM (inactive) | 2.89 µM (inactive) | 0.535 µM (active) | 0.285 µM (active) | 3.13 µM (inactive) | 2.21 µM (inactive) |
| CCOc1cc2c(=O)oc3c(OC)ccc4ccc(c1OC)c2c43 | 96.8 µM (inactive) | > 100 µM (inactive) | > 100 µM (inactive) | 58.7 µM (inactive) | > 100 µM (inactive) | 14.5 µM (inactive) | 25.1 µM (inactive) | > 100 µM (inactive) | > 100 µM (inactive) | > 100 µM (inactive) | > 100 µM (inactive) | > 100 µM (inactive) | > 100 µM (inactive) | > 100 µM (inactive) | 77.3 µM (inactive) | 73.5 µM (inactive) | > 100 µM (inactive) | > 100 µM (inactive) | > 100 µM (inactive) | > 100 µM (inactive) |
| CCCCCCCCCCCCCCCCCC(=O)OCC(COC1OC(CS(=O)(=O)O)C(O)C(O)C1O)OC(=O)CCCCCCCCCCCCCCCCC (stereo not given) | > 100 µM (inactive) | > 100 µM (inactive) | > 100 µM (inactive) | > 100 µM (inactive) | 45.2 µM (inactive) | > 100 µM (inactive) | > 100 µM (inactive) | > 100 µM (inactive) | > 100 µM (inactive) | > 100 µM (inactive) | > 100 µM (inactive) | > 100 µM (inactive) | > 100 µM (inactive) | > 100 µM (inactive) | > 100 µM (inactive) | > 100 µM (inactive) | > 100 µM (inactive) | > 100 µM (inactive) | > 100 µM (inactive) | > 100 µM (inactive) |
